System: Pyricularia oryzae
Format: cell-based
Details: 125 ppm, microtiter plate, absorption at 405 nm on the seventh day after inoculation

`CCCCCCCCc1c(N)nc(SC)nc1CC` [I-3, 6-ethyl-2-methylsulfanyl-5-octylpyrimidin-4-ylamine] was tested, and the “growth (relative growth of the pathogen)” value was “inhibited completely”.
